Laboratory results reported in publication PMC7934871 (JCI Insight, 2021).
No end group written: not given here.

How the values were obtained:
cancer cells = experiment: Confocal microscopy of peptide localisation; type: cell-based; settings: 1 μM, 1 hour
Experimental: (§1) Figure 8 PS-Gp130 and PS-MYC blocking peptides efficiently internalize into tumor cells to exert their functions. (A) For 1 hour 1 μM of PS-conjugated MYC (PS-MYC) and Gp130 (PS-Gp130) were incubated with cancer cells. PS-scramble MYC (PS-SC-MYC) was used as a control for PS-MYC. The peptide uptake was visualized by confocal microscopy and quantified by flow cytometry. Data are representative of 3 independent experiments (n = 3). (B) Upper panel: The binding of PS-Gp130 and STAT3 was examined by immunoprecipitation and Western blotting. PO-Gp130 was used as a control. For 4 hours prior to harvest, 1 μM of peptide was incubated with cells. Lower panel: PS-Gp130 inhibits IL-6–induced phosphorylation of STAT3 and p44/42 but not EGF-mediated signaling. The cells were preincubated with PS-Gp130 for 2 hours and then stimulated with 20 ng/mL of IL-6 or 30 ng/mL of EGF for 30 minutes before harvest and Western blotting. (C) Gene expression of STAT3 targets was examined by quantitative PCR after the treatment with 1 μM of PS-Gp130 with or without IL-6 stimulation as described above. Data shown are 3 independent experiments (n = 3); SD is shown. Unpaired Student’s t test; ***P < 0.005; **P < 0.01; *P < 0.05. (D) A total of 1 μM of PS-SC-MYC or PS-MYC was incubated with cells for 48 hours before the gene expression of MYC targets was examined by quantitative PCR. […]

[1] = mouse, in vivo
Experimental: Supplemental Figure 10 (related to Figure 3). The systemic toxicity of PS-acet.-peptide.
The bodyweight (A), blood count (B) and organ morphology (H&E staining; spleen, kidney and liver) (C) of the mice (n=3) treated with HBSS (1), PS-oligo (2), naïve peptide (3), PO-peptide (4) or PS-peptide (5) every other day at 1 mg/kg (per treatment) for 3 weeks.
Individual value of each mouse is shown as a dot on the graph. The red lines on each graph in (B) indicate the normal ranges. Blood count was done by a veterinary hematology analyzer. The images shown in (C) are the represented H&E section from three mice (n=3). Enlarged view are shown below as indicated. Scale bar, 50 µm.
Aftabizadeh and Li et al., Figure S10
Supplemental Figure 12 (related to Figure 6).
(A) Amino acid sequences of phosphorothioated (*, PS) DNA oligonucleotide-modified Gp130 (PS-Gp130), MYC (PS-MYC) and scrambled MYC (PS-SC-MYC) peptides. PS-Gp130 peptide spans 9 amino acids of Gp130 protein (amino acids […]). PS-MYC peptide contains 9 amino acids of Max protein (amino acids 77-85).
(B and C) The bodyweight (B, n=5) and blood count (C, n=3) of the mice in each treatment group was measured at the end point. Individual value of each mouse is shown as a dot on the graph. The red lines on each graph indicate the normal ranges.
Aftabizadeh and Li et al., Figure S12

MYC target genes = experiment: Gene expression of MYC targets by quantitative PCR; type: cell-based; settings: 1 μM, 48 hours, n = 3
Experimental: as §1, with “Lower panel: PS-Gp130 inhibits IL-6–induced phosphorylation of STAT3 and p44/42 but not EGF-mediated signaling. The cells were preincubated with PS-Gp130 for 2 hours and then stimulated with 20 ng/mL of IL-6 or 30 ng/mL of EGF for 30 minutes before harvest and Western blotting.” left out, “Data shown are 3 independent experiments (n = 3); SD is shown. Unpaired Student’s t test; ***P < 0.005; **P < 0.01; *P < 0.05.” left out
Total RNA was extracted from cultured or tumor tissues using RNeasy kit (QIAGEN), according to manufacturer’s instruction. After cDNA synthesis using iScript cDNA Synthesis kit (Bio-Rad), samples were analyzed using pairs of primers specific for CASP9, CASP3, CASP8, BIRC5, BCL2L1, MYC, TP53, VEGF, IL1B, SERPIN3, FGA, CDK4, CCND2, CDKN2A, CDKN2B, GADD45A, mCD274, mMmp9, and mBirc5, as indicated. […]

## PS-MYC: PS-conjugated peptide corresponding to leucine zipper segment of MAX (amino acids 77–85) (KNHTHQQDI; also: phosphorothioate oligonucleotide conjugate; UniProt P61244 77-85, looked up, fragment)
Cancer cells
  intracellular localisation / retention of peptide: retained in the nucleus
[1]
  blood count (anemia): minor anemia
MYC target genes
  expression of MYC-mediated cell cycle and survival genes: markedly downregulated
  expression of MYC-suppressed target genes: upregulating
